What follows are compounds tested against human PAD4 (hPAD4) (Homo sapiens (Human), UniProt Q9UM07) (assay: RFMS Human PAD4 Functional Assay 1). Details: RFMS assay 1; 5 nM hPAD4, 250 μM BAEE substrate, 50 μM calcium, 37° C.
Sequence of human PAD4 (hPAD4) (Q9UM07 whole entry): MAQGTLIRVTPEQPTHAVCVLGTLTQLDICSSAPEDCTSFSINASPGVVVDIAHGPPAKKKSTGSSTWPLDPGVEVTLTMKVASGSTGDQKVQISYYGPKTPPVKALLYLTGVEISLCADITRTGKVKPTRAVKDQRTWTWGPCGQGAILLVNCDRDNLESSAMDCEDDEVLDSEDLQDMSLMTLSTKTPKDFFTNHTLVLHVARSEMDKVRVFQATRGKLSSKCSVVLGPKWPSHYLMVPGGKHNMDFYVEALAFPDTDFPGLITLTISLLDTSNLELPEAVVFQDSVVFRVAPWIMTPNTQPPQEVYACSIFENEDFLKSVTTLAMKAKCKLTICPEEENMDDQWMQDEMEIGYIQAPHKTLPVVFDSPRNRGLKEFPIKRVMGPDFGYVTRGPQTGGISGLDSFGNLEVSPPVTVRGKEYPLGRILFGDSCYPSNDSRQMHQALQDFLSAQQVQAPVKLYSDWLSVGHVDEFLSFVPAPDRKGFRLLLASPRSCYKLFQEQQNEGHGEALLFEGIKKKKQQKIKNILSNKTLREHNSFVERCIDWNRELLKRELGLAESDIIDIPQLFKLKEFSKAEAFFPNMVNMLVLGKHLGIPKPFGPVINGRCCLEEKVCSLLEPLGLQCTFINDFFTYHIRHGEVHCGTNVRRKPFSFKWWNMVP
Assay type: biochemical
Protocol: RFMS Human PAD4 Functional Assay 1:
Compounds were solubilized in 100% DMSO to achieve all) mM compound concentration. Compound stock solutions were stored at RT. A series of dilutions were prepared in DMSO and mixed 8 times with 20 μL mixing volume. Final top concentration of compound in the assay is 50 μM. Final assay conditions were as follows: • Reaction volume: 26 μl • Assay buffer: 25 mM hepes, pH 7.5, 5 mM NaCl, 1 mM DTT, 0.2 mg/ml BSA, 0.01% CHAPS, 50 μM Calcium, and 5 μM TPEN • Final concentrations: 5 nM hPAD4 enzyme, 250 μM BASE, and 0.5% DMSO • Total incubation time: 30 mins compound and enzyme preincubation at 37° C., 90 min enzyme/substrate reaction, 30 min reaction with phenyl glyoxal at 37° C. • Stop solution: 40 μl 5% TCA in ACN
0.13 μL of compound solution was added to 13 μL of 10 nM PAD4 in assay buffer. After 30 min 13 μl of 500 μM of BAEE was added in 25 mM hepes, pH 7.5, 5 mM NaCl, 1 mM DTT, 0.2 mg/ml BSA, 0.01% CHAPS, 50 μM Calcium, 5 μM TPEN was added and the reaction incubated for 90 min at 37° C. The enzymatic reaction was quenched by addition of 15 μl of 6.1N TCA, 100% Final Concentration is 20%, 35 μl of 8.5 mM phenyl glyoxal (final concentration 4 mM) is then added and the reaction is incubated for 30 min at 37° C.
After 30 minutes the plates are spun down to remove all precipitate. The enzyme reaction was quenched with an equal volume of methanol containing internal standard (modified citrulline). Samples were loaded onto the Rapid Fire RF300 system (Agilent) wherein they were first sipped for 1000 ms and then directly loaded to a C18 separations cartridge using a mixture of acetonitrile containing 0.01% formic acid for 3000 ms desalting. The flow rate of the mobile phase was 1.5 ml/min. Once the samples were eluted from the cartridge, a mobile phase of acetonitrile containing 0.01% formic acid was used to move the samples into the mass spectrometer for 4000 ms at a flow rate of 1.25 ml/min/Sciex API5500 triple quadrupole mass spectrometer (Applied Biosystems) equipped with ESI was used to analyze the peptidyl citrulline and internal standard ions.
MRM transition of product and internal standard were monitored at m/z 424.5 to 350.4 and m/z 293 to 247 respectively. The dwell time for each transition was set at 200 ms, and the ESI voltage was used at 5500 with a source temperature of 400° C. Extracted ion peaks for each transition were integrated using the Rapid Fire Integrator software. Peak area of analyte was normalized with internal standard.).
Work on `Cc1c(-c2cc3cc(F)cc(C4CCN(C(=O)C5CCCO5)CC4)c3n2CC2CC2)nn2cc(C(=O)N3CCC[C@@H](N)C3)ccc12` (single isomer, unassigned) [Example 489] yielded an IC50 of 70 nM. In the case of `Cc1c(-c2cc3cc(F)cc(C4CCN(C(=O)C5CCCO5)CC4)c3n2CC2CC2)nn2cc(C(=O)N3C[C@H](N)C[C@@H](F)C3)ccc12` (single isomer, unassigned) [Example 490], the IC50 is reported as 150 nM. `Cc1c(-c2cc3cc(F)cc(C4CCN(C(=O)C5CCCO5)CC4)c3n2CC2CC2)nn2cc(C(=O)N3C[C@H](N)C[C@@H](F)C3)ccc12` (single isomer, unassigned) [Example 491] was tested, and the IC50 was 1310 nM. Compound `COc1cc(C(=O)N2CCC[C@@H](N)C2)cn2nc(-c3cc4cccc(OCC5CC(=O)N(C)C5)c4n3CC3CC3)c(C)c12` (single isomer, unassigned) [Example 551] has an IC50 of 160 nM. Compound `COc1cc(C(=O)N2CCC[C@@H](N)C2)cn2nc(-c3cc4cccc(OCC5CC(=O)N(C)C5)c4n3CC3CC3)c(C)c12` (single isomer, unassigned) [Example 552] has an IC50 of 100 nM. Compound `COc1cc(C(=O)N2C[C@H](N)C[C@@H](F)C2)cn2nc(-c3cc4cccc(OCC5CC(=O)N(C)C5)c4n3CC3CC3)c(C)c12` (single isomer, unassigned) [Example 553] has an IC50 of 90 nM. For `COc1cc(C(=O)N2C[C@H](N)C[C@@H](F)C2)cn2nc(-c3cc4cccc(OCC5CC(=O)N(C)C5)c4n3CC3CC3)c(C)c12` (single isomer, unassigned) [Example 554], the IC50 was 60 nM. Work on `COc1cc(C(=O)N2CCC[C@@H](N)C2)cn2nc(-c3cc4cccc(OCC5CNC(=O)C5)c4n3CC3CC3)c(C)c12` (single isomer, unassigned) [Example 562] yielded an IC50 of 140 nM. `COc1cc(C(=O)N2C[C@H](N)C[C@@H](F)C2)cn2nc(-c3cc4cccc(OCC5CNC(=O)C5)c4n3CC3CC3)c(C)c12` (single isomer, unassigned) [Example 563] gave an IC50 of 70 nM. Compound `COc1cc(C(=O)N2CCC[C@@H](N)C2)cn2nc(-c3cc4cccc(OCC5CNC(=O)C5)c4n3CC3CC3)c(C)c12` (single isomer, unassigned) [Example 564] has an IC50 of 40 nM. `COc1cc(C(=O)N2C[C@H](N)C[C@@H](F)C2)cn2nc(-c3cc4cccc(OCC5CNC(=O)C5)c4n3CC3CC3)c(C)c12` (single isomer, unassigned) [Example 565] showed an IC50 of 20 nM. With `Cc1c(-c2cc3cccc(OCC4CNC(=O)C4)c3n2CC2CC2)nn2cc(C(=O)N3CCC[C@@H](N)C3)cc(F)c12` (single isomer, unassigned) [Example 566] the IC50 was 10 nM. `Cc1c(-c2cc3cccc(OCC4CNC(=O)C4)c3n2CC2CC2)nn2cc(C(=O)N3C[C@H](N)C[C@@H](F)C3)cc(F)c12` (single isomer, unassigned) [Example 567] gave an IC50 of 20 nM. Compound `Cc1c(-c2cc3cccc(OCC4CNC(=O)C4)c3n2CC2CC2)nn2cc(C(=O)N3CCC[C@@H](N)C3)cc(F)c12` (single isomer, unassigned) [Example 571] has an IC50 of 30 nM. `Cc1c(-c2cc3cccc(OCC4CNC(=O)C4)c3n2CC2CC2)nn2cc(C(=O)N3C[C@H](N)C[C@@H](F)C3)cc(F)c12` (single isomer, unassigned) [Example 572] was tested, and the IC50 was 80 nM. Work on `Cc1c(-c2cc3cccc(OCC4CNC(=O)C4)c3n2CC2CC2)nn2cc(C(=O)N3C[C@H](N)C[C@@H](F)C3)ccc12` (single isomer, unassigned) [Example 573] yielded an IC50 of 110 nM. Compound `Cc1c(-c2cc3cccc(OCC4CC(=O)N(C)C4)c3n2CC2CC2)nn2cc(C(=O)N3CCC[C@@H](N)C3)ccc12` (single isomer, unassigned) [Example 576] has an IC50 of 190 nM. `Cc1c(-c2cc3cccc(OCC4CC(=O)N(C)C4)c3n2CC2CC2)nn2cc(C(=O)N3C[C@H](N)C[C@@H](F)C3)ccc12` (single isomer, unassigned) [Example 577] was tested, and the IC50 was 150 nM. In the case of `Cc1c(-c2cc3cccc(OCC4CC(=O)N(C)C4)c3n2CC2CC2)nn2cc(C(=O)N3CCC[C@@H](N)C3)ccc12` (single isomer, unassigned) [Example 578], the IC50 is reported as 190 nM. `Cc1c(-c2cc3cccc(OCC4CC(=O)N(C)C4)c3n2CC2CC2)nn2cc(C(=O)N3C[C@H](N)C[C@@H](F)C3)ccc12` (single isomer, unassigned) [Example 579] showed an IC50 of 240 nM. `Cc1c(-c2cc3cccc(OCC4CNC(=O)C4)c3n2CC2CC2)nn2cc(C(=O)N3CCC[C@@H](N)C3)ccc12` (single isomer, unassigned) [Example 588] was tested, and the IC50 was 230 nM. For `Cc1c(-c2cc3cccc(OCC4CNC(=O)C4)c3n2CC2CC2)nn2cc(C(=O)N3CCC[C@@H](N)C3)ccc12` (single isomer, unassigned) [Example 589], the IC50 was 60 nM. In the case of `Cc1c(-c2cc3cccc(OCC4CNC(=O)C4)c3n2CC2CC2)nn2cc(C(=O)N3C[C@H](N)C[C@@H](F)C3)ccc12` (single isomer, unassigned) [Example 590], the IC50 is reported as 30 nM. For `COc1cc(C(=O)N2CCC[C@@H](N)C2)cn2nc(-c3cc4ccnc(OCC5CNC(=O)C5)c4n3CC3CC3)c(C)c12` (single isomer, unassigned; isomer 1) [Example 591], the IC50 was 30 nM. `COc1cc(C(=O)N2C[C@H](N)C[C@@H](F)C2)cn2nc(-c3cc4ccnc(OCC5CNC(=O)C5)c4n3CC3CC3)c(C)c12` (single isomer, unassigned; isomer 1) [Example 601] showed an IC50 of 30 nM. Work on `COc1cc(C(=O)N2CC3CCC2[C@@H]3N)cn2nc(-c3cc4ccnc(OCC5CNC(=O)C5)c4n3CC3CC3)c(C)c12` (single isomer, unassigned; isomer 1) [Example 605] yielded an IC50 of 70 nM. `Cc1c(-c2cc3ccnc(OCC4CNC(=O)C4)c3n2CC2CC2)nn2cc(C(=O)N3C[C@H](N)C[C@@H](F)C3)ccc12` (single isomer, unassigned; isomer 1) [Example 614] was tested, and the IC50 was 60 nM. `Cc1c(-c2cc3ccnc(OCC4CNC(=O)C4)c3n2CC2CC2)nn2cc(C(=O)N3CCC[C@@H](N)C3)ccc12` (single isomer, unassigned; isomer 1) [Example 618] gave an IC50 of 50 nM. `COc1cc(C(=O)N2C[C@H](N)C[C@@H](F)C2)cn2nc(-c3cc4ccnc(OCC5CNC(=O)C5)c4n3CC3CC3)c(C)c12` (single isomer, unassigned; isomer 2) [Example 602] was tested, and the IC50 was 30 nM. With `COc1cc(C(=O)N2CCC[C@@H](N)C2)cn2nc(-c3cc4ccnc(OCC5CNC(=O)C5)c4n3CC3CC3)c(C)c12` (single isomer, unassigned; isomer 2) [Example 603] the IC50 was 100 nM. `COc1cc(C(=O)N2CC3CCC2[C@@H]3N)cn2nc(-c3cc4ccnc(OCC5CNC(=O)C5)c4n3CC3CC3)c(C)c12` (single isomer, unassigned; isomer 2) [Example 606] gave an IC50 of 50 nM. With `Cc1c(-c2cc3ccnc(OCC4CNC(=O)C4)c3n2CC2CC2)nn2cc(C(=O)N3C[C@H](N)C[C@@H](F)C3)ccc12` (single isomer, unassigned; isomer 2) [Example 615] the IC50 was 70 nM. With `Cc1c(-c2cc3ccnc(OCC4CNC(=O)C4)c3n2CC2CC2)nn2cc(C(=O)N3CCC[C@@H](N)C3)ccc12` (single isomer, unassigned; isomer 2) [Example 619] the IC50 was 40 nM. For `COc1cc(C(=O)N2CC3CCC2[C@H]3N)cn2nc(-c3cc4ccnc(OC[C@H]5CCC(=O)N5)c4n3CC3CC3)c(C)c12` (stereo in doubt) [Example 607, (5R)-5-(((2-(6-((7S)-7-Amino-2-azabicyclo[2.2.1]heptane-2-carbonyl)-4-methoxy-3-methylpyrazolo[1,5-a]pyridin-2-yl)-1-(cyclopropylmethyl)-1H-pyrrolo[2,3-c]pyridin-7-yl)oxy)methyl)pyrrolidin-2-one], the IC50 was 50 nM. In the case of `COc1cc(C(=O)N2CC3CCC2[C@@H]3N)cn2nc(-c3cc4cccnc4n3CC3CC3)c(C)c12` (stereo partly drawn) [Example 1, ((7R)-7-Amino-2-azabicyclo[2.2.1]heptan-2-yl)(2-(1-(cyclopropylmethyl)-1H-pyrrolo[2,3-b]pyridin-2-yl)-4-methoxy-3-methylpyrazolo[1,5-a]pyridin-6-yl)methanone], the IC50 is reported as 280 nM. Work on `COc1cc(C(=O)N2CC3CCC2[C@@H]3N)cn2nc(-c3cc4ccc(Cl)nc4n3CC3CC3)c(C)c12` (stereo partly drawn) [Example 2, ((7R)-7-Amino-2-azabicyclo[2.2.1]heptan-2-yl)(2-(6-chloro-1-(cyclopropylmethyl)-1H-pyrrolo[2,3-b]pyridin-2-yl)-4-methoxy-3-methylpyrazolo[1,5-a]pyridin-6-yl)methanone] yielded an IC50 of 380 nM.
